Assay results published in paper PMC11748629, “Unidirectional MCM translocation away from ORC drives origin licensing” (Nature Communications, 2025).

Legend:
Assay in all cases: cryo-EM structure
MCM-Cdt1 complex [1] = test system: T1, MCM-Cdt1 complex; format: binding, Saccharomyces cerevisiae; conditions: OC1M-Mcm5RA complex (no Cdc6) on ARS1 DNA with ORC; 2 mM ATP added, Mg2+, pH 7.6, 30 C; sites Mcm5/2, 2/6, 6/4 and 4/7; conformers 1 and 2
T1 construct: gene MCM2; with Cell division cycle protein CDT1

MCM-Cdt1 complex [2] = test system: T1, MCM-Cdt1 complex; format: binding, Saccharomyces cerevisiae; conditions: OCCM-Mcm2RA complex on ARS1 DNA with ORC-Cdc6; 3 mM ATP added, Mg2+, pH 7.6, 30 C; all six MCM ATPase sites occupied, ADP assigned from density
ORC complex = target: T2, ORC complex (Saccharomyces cerevisiae, UniProt P50874+P54784+P54790+P54791); format: binding; conditions: wild-type ORC in OCCM-Mcm2RA (sites Orc4-Orc1, Orc5-Orc4, Orc3-Orc5) and in OC1M-Mcm5RA (Orc5-Orc4, Orc3-Orc5); 2-3 mM ATP, Mg2+, pH 7.6, 30 C
T2 construct: gene ORC1; with Origin recognition complex subunit 2; Origin recognition complex subunit 6
T2 sequence (P54784 whole entry): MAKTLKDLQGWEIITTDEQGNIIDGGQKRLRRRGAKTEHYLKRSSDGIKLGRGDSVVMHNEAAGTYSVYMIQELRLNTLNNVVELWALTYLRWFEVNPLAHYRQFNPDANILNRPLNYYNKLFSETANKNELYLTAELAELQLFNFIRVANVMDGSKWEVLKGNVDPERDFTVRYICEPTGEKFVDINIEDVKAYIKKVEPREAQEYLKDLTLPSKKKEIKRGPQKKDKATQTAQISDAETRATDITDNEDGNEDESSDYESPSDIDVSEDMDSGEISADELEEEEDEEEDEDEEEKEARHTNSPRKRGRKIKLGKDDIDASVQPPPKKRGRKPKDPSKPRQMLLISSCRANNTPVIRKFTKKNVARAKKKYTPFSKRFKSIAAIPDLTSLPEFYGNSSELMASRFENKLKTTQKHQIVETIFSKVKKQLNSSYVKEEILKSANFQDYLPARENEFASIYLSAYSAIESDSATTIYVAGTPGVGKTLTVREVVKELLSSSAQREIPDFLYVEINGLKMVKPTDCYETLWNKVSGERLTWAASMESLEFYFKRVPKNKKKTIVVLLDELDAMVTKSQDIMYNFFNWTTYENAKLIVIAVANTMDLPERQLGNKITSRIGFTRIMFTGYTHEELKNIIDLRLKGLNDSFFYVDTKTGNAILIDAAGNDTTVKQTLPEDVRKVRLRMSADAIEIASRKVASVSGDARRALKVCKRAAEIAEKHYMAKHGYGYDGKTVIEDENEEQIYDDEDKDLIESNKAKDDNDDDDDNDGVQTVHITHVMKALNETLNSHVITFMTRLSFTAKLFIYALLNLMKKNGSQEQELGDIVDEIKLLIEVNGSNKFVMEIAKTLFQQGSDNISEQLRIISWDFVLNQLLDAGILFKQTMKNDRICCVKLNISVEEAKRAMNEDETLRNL
T2 sequence (P54790 2-616): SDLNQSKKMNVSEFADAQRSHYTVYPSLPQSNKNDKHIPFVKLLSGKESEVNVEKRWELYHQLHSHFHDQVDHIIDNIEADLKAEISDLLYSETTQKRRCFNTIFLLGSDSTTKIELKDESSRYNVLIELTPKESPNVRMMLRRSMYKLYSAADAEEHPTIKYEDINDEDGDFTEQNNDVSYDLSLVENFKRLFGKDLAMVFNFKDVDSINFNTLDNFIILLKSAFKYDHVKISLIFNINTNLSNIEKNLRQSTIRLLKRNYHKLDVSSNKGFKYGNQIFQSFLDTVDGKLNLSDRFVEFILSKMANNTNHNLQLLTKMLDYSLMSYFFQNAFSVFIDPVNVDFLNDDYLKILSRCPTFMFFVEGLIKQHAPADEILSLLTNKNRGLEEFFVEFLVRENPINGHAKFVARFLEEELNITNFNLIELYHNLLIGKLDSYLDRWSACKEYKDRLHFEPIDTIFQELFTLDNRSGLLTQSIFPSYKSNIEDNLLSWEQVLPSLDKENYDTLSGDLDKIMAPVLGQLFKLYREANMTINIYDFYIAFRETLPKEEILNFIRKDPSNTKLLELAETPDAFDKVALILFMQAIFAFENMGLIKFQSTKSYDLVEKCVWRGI
T2 sequence (P54791 whole entry): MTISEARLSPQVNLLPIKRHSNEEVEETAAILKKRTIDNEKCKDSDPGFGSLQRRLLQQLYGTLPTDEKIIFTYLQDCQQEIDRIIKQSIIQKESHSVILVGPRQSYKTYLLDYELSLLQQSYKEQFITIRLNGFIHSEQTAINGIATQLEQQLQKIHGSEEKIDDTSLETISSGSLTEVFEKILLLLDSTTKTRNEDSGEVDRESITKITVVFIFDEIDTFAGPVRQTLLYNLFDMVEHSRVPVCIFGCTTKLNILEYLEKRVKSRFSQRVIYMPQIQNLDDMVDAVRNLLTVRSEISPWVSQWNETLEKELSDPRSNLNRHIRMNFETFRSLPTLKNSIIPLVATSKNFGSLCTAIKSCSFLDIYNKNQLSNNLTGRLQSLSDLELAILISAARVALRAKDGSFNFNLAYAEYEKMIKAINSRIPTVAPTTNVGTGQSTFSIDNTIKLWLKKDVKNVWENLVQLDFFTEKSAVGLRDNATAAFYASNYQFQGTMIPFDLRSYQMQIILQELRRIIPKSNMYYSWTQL
T2 sequence (P50874 whole entry): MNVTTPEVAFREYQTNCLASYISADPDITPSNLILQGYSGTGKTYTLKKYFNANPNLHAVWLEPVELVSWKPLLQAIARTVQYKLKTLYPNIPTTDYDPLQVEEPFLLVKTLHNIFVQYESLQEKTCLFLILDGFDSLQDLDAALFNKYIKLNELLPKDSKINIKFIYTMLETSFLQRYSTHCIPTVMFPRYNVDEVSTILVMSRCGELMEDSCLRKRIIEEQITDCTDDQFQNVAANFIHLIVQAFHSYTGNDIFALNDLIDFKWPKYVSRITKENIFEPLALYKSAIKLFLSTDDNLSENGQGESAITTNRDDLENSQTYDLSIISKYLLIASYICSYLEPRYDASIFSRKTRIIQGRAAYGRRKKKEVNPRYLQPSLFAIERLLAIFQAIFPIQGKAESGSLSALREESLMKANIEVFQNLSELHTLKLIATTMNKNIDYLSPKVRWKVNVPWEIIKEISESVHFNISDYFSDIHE
T2 sequence (P32833 whole entry partner): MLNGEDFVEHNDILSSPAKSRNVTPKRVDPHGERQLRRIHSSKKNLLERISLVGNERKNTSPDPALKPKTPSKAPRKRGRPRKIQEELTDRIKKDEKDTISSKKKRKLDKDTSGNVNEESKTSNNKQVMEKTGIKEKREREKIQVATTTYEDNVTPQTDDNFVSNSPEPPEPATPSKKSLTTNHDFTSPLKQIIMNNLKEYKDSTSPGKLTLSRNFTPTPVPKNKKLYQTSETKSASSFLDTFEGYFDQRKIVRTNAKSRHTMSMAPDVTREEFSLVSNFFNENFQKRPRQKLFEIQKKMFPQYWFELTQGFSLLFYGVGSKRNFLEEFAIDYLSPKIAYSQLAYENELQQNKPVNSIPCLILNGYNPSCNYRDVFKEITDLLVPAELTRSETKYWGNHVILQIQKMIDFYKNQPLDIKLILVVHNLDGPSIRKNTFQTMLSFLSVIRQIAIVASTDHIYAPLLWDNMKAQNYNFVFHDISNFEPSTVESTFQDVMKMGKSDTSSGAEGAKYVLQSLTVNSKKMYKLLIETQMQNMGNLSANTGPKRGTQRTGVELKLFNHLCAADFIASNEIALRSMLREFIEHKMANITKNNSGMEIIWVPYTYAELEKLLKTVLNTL
T2 sequence (P38826 whole entry partner): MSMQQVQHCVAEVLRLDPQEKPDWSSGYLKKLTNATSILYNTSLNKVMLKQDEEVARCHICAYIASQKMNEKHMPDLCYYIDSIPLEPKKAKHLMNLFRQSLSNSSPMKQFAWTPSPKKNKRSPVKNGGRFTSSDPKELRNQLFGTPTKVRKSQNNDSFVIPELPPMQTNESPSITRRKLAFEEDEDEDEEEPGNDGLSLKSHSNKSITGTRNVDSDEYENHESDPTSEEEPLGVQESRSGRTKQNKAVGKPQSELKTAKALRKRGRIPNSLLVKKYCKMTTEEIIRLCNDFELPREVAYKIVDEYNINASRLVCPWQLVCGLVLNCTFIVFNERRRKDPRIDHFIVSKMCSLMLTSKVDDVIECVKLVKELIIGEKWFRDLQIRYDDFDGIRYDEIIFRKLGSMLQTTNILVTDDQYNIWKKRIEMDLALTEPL

SMILES	cryo-EM structure (MCM-Cdt1 complex [1])	cryo-EM structure (MCM-Cdt1 complex [2])	cryo-EM structure (ORC complex)
Nc1ncnc2c1ncn2[C@@H]1O[C@H](COP(=O)(O)OP(=O)(O)O)[C@@H](O)[C@H]1O [ADP]	Four ATPase sites were identified as occupied, with ADP modelled based on the density	All six ATPase sites were identified as occupied, with ADP modelled based on the density	
Nc1ncnc2c1ncn2[C@@H]1O[C@H](COP(=O)(O)OP(=O)(O)OP(=O)(O)O)[C@@H](O)[C@H]1O [ATP]			ATP can only be observed in the Orc4-Orc1, Orc5-4 and Orc3-5 nucleotide-binding sites
